Measurements taken from US20090233796A1, “HERBICIDAL COMPOSITION” (SYNGENTA CROP PROTECTION, INC., priority 2004, published 2009).

Key:
Format in all cases: in vivo
STELLARIA MEDIA = assay: Compound (A) with triasulfuron, weed plots; conditions: 10 g per hectare; 30 DAA; No. 3.1
Experimental: In these tests, various weeds were treated with triasulfuron alone at a rate equivalent to 26 g per hectare, Compound (A) alone at a rate equivalent to 10 g per hectare, and to a mixture of triasulfuron and Compound (A) at rates equivalent to the sum of these. The compositions were formulated as an emulsifyable concentrate (EC).
The results in the table under each application are the percentage of the plants that were killed.

VERONICA PERSICA = assay: Compound (A) with paraquat, weed plots; conditions: 69 DAA, No. 1.6
Experimental: (§1) In these tests, various weeds were treated with paraquat alone at rates equivalent to 700 g per hectare and 840 g per hectare, compound (A) alone at rates equivalent to 10 g per hectare and 20 g per hectare, and with a mixture of paraquat and compound (A) at rates equivalent to the sum of these. The compositions were formulated as an emulsifyable concentrate (EC).
(§2) The results in the table under each application are the percentage of the weeds plants that were killed.

CYPERUS ROTUNDUS = assay: Compound (A) with paraquat, weed plots; conditions: 56 DAA, No. 1.11
Experimental: as §1, §2

SETARIA VIRIDIS = assay: Compound (A) with paraquat, weed plots; conditions: 43 DAA, No. 1.3
Experimental: as §1, §2

SONCHUS ASPER = assay: Compound (A) with paraquat, weed plots; conditions: 32 DAA, No. 1.10
Experimental: as §1, §2

E[…]-GALLI = assay: Compound (A) with paraquat, weed plots; conditions: 51 DAA, No. 1.8
Experimental: as §1, §2

CONYZA SP. = assay: Compound (A) with paraquat, weed plots; conditions: 5 DAA
Experimental: as §1, §2

Compound: CCOC(=O)COc1ncccc1Oc1cc(-n2c(=O)cc(C(F)(F)F)n(C)c2=O)c(F)cc1Cl [Compound (A)]
- percentage of the plants that were killed (STELLARIA MEDIA): 63%
- percentage of the weeds plants that were killed (VERONICA PERSICA; 10 g/ha): 25%
- percentage of the weeds plants that were killed (VERONICA PERSICA; 20 g/ha): 100%
- percentage of the weeds plants that were killed (CYPERUS ROTUNDUS; 10 g/ha): 0%
- percentage of the weeds plants that were killed (CYPERUS ROTUNDUS; 20 g/ha): 0%
- percentage of the weeds plants that were killed (SETARIA VIRIDIS; 10 g/ha): 0%
- percentage of the weeds plants that were killed (SETARIA VIRIDIS; 20 g/ha): 23%
- percentage of the weeds plants that were killed (SONCHUS ASPER; 10 g/ha): 60%
- percentage of the weeds plants that were killed (SONCHUS ASPER; 20 g/ha): 55%
- percentage of the weeds plants that were killed (E[…]-GALLI; 10 g/ha): 0%
- percentage of the weeds plants that were killed (E[…]-GALLI; 20 g/ha): 0%
- percentage of the weeds plants that were killed (CONYZA SP.; 10 g/ha, No. 1.1): 37%
- percentage of the weeds plants that were killed (CONYZA SP.; 10 g/ha, No. 1.9): 37%
- percentage of the weeds plants that were killed (CONYZA SP.; 20 g/ha, No. 1.1): 40%
- percentage of the weeds plants that were killed (CONYZA SP.; 20 g/ha, No. 1.9): 40%
